In PMC2790015 (Journal of molecular biology, 2009):
Values belong to the molecule of their own block, whether it stands above or below them.

How the values were obtained:
[1] = test system: DNA alone; assay: DNA hybridization controls for the AraC experiments; format: binding; settings: compared with no sugar; sugars 10 mM; data not shown
[2] = test system: adjacent DNA half-sites; settings: addition of arabinose; cited from earlier work
[3] = test system: K4 and E4 heterodimerizing coiled-coil peptides; assay: DNA-assisted binding assay; settings: GC to AT substituted DNA versus original DNA sequence
[4] = target: T1, K4 coiled-coil peptide (modified: N-terminal Met, Val to Trp, C-terminal Ala), unconjugated; assay: ITC
T1 peptide: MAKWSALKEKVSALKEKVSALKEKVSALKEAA

Molecule: O[C@@H]1[C@@H](O)[C@@H](O)CO[C@H]1O [arabinose]
effect of sugar on DNA hybridization [1]: DNA hybridization is not affected | increase in amount of AraC capable of binding to adjacent DNA half-sites [2]: 40 -fold

Molecule: OC[C@H]1OC(O)[C@H](O)[C@@H](O)[C@@H]1O (some centres unmarked) [glucose]
effect of sugar on DNA hybridization [1]: DNA hybridization is not affected

Molecule: GC to AT substituted DNA sequences: K4 and E4 conjugated to GC to AT substituted 5’-TTTTTTGGGTTATAC-3’ and 5’-TTTTTTGTATAAC-3’ (K4 and E4 peptides conjugated)
decrease in the interaction between the conjugates [3]: 3 -fold

Kd [4]: ~1000 nM
Molecule: MAEWSALEKEVSALEKEVSALEKEVSALEKAA [E4 coiled-coil peptide (modified: N-terminal Met, Val to Trp, C-terminal Ala), unconjugated]
